Experimental data from publication PMC7136483 (Frontiers in Pharmacology, 2020).
Several values for one entry are separate records, joined by “and”; a condition that tells them apart may be missing. Equal entries are not always repeated. Blank lines part the entries; values can stand above or below the molecule they belong to.

Key:
[1] = Joint parent-metabolite NLME PK model of tamoxifen and endoxifen (structural, statistical and age covariate estimates); type: in vivo, human
From the text: PK parameters for tamoxifen and endoxifen were simultaneously estimated.
The statistical model aimed to incorporate four levels of variability around the structural model. Thus, and due to the nature of the database, a nested hierarchy of random-effects components was set up comprising interstudy (ISV), interindividual (IIV), interoccasion (IOV), and residual unexplained variability (RUV) (see Supplementary Figure S1). While ISV and IIV characterize random deviations between different studies and patients, respectively, IOV describes the random variability within an individual patient across different occasions. The RUV captures the remaining variability across all observations.
IIV was evaluated on all structural PK parameters and implemented using exponential IIV models (Equation 1). Resulting individual PK parameters were assumed to arise from a log-normal distribution in which the ηik values are normally distributed with mean zero and variance estimate ωk2 .
While 27% of the patients had samples collected on one occasion (study day, i.e., one dosing interval = 1 day) only, 73% of patients in the PK database had samples collected on three to four occasions (i.e., 3–4 days) with rich sampling during one occasion (dosing interval) in studies 3–6.
For the RUV, a log-transformed both sides approach was applied (Equation 3).
Since tamoxifen and endoxifen PK were analyzed simultaneously, separate but correlated RUV terms were estimated.
A study effect was introduced as additional variability term on top of the random individual effect (IIV) (study hierarchically above individual level, see Supplementary Figure S1 and Equation 4) ([Laporte-Simitsidis et al., 2000]),
The covariate model was developed using a full covariate model approach ([Tunblad et al., 2008]; [Ravva et al., 2009]; [Gastonguay, 2011]): first, covariates were pre-selected based on specific criteria and introduced simultaneously into a full covariate model (for details see Supplementary Material 1, see section “Covariate Submodel Development”). Secondly, a covariate model refinement step was performed, selecting the most appropriate covariate functions for the preselected covariates, with respect to numerical and statistical evaluation criteria. Finally, the refined full covariate model was evaluated based on physiological plausibility of the estimated effect, statistical significance and clinical relevance criteria using advanced model evaluation techniques (Supplementary Material 1, see section “Advanced Model Evaluation Diagnostics”). To explore and quantify the reduction of unexplained variability upon introduction of covariate effects, the statistical model with the four levels of variability was exploited.
Furthermore, endoxifen PK parameter values (CL30/F = 5.1 L/h and VENDX/F = 400 L) were informed and used from a clinical study administering endoxifen only ([Ahmad et al., 2010b]).

[2] = Clinical PK database of six pooled tamoxifen studies: observed minimum steady-state concentrations
CYP2D6 [3] = target: T1, CYP2D6 (Homo sapiens, UniProt P10635); assay: NLME PK model covariate: SSRI (paroxetine/fluoxetine) comedication (CYP2D6 inhibitors); type: in vivo; settings: during strong CYP2D6-inhibitor comedication
T1 construct: endogenous in cells; host or cells: breast cancer patients (in vivo, clinical PK data)
T1 sequence (P10635 whole entry): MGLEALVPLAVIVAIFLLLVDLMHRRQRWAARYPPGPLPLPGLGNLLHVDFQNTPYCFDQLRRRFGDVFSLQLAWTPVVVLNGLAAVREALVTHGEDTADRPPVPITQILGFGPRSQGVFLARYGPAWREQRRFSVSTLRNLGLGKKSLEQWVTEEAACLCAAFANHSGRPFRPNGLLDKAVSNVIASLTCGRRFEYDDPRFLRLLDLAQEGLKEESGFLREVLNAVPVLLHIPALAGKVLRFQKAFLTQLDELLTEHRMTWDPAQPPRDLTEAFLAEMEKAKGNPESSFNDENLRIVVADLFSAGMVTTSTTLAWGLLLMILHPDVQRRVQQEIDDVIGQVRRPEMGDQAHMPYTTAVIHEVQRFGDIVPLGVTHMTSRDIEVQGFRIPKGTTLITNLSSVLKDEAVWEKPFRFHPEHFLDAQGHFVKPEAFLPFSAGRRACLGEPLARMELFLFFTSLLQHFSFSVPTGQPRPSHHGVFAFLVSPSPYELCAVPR
Experimental: (§1) Secondly, a covariate model refinement step was performed, selecting the most appropriate covariate functions for the preselected covariates, with respect to numerical and statistical evaluation criteria. Finally, the refined full covariate model was evaluated based on physiological plausibility of the estimated effect, statistical significance and clinical relevance criteria using advanced model evaluation techniques (Supplementary Material 1, see section “Advanced Model Evaluation Diagnostics”). To explore and quantify the reduction of unexplained variability upon introduction of covariate effects, the statistical model with the four levels of variability was exploited.

[4] = set-up: method as in earlier work; settings: ref Johnson et al., 2004, Kisanga et al., Lim et al., 2005, Mürdter et al., 2011, Gjerde et al., 2012; cited from earlier work
[5] = set-up: method as in Ahmad et al., 2010b; settings: fixed in model, ref Ahmad et al., 2010b, cited from earlier work
CYP2D6 [6] = assay: NLME PK model covariate: CYP2D6 activity score on endoxifen formation; type: in vivo, human
From the text: To derive a patient’s CYP2D6 phenotype, the available genotype information, i.e., detected genetic polymorphisms (single nucleotide polymorphisms, SNPs, and copy number variants, CNVs), was translated via three steps: (1) From the reported nucleotide variation (wild-type ‘wt’ or altered nucleotide sequence ‘mut’) to a biallelic genotype, e.g., wt/mut: ^∗1/^∗41; (2) from the genotype to the activity score (AS), e.g., ^∗1/^∗41 → 1.5; (3) From the AS to the ‘traditional’ CYP2D6 phenotype category, e.g., 1.5 → normal metabolizer, gNM. […] Thus, each patient in the PK database was assigned a CYP2D6 activity score (seven AS categories from 0 to 3 in intervals of 0.5) and a respective CYP2D6 phenotype [four categories: poor (gPM, AS: 0), intermediate (gIM, AS: 0.5), normal (gNM, AS:1-2), and ultrarapid (gUM, […]) metabolizer; see Figure 1]. The prefix ‘g’ indicates the phenotype prediction from genotype.
as §1
CYP2D6 activity score The CYP2D6 AS is a multichotomous covariate with seven ordered categories from 0 to 3 (step size of 0.5). For each patient in the PK database, an AS was derived from the reported CYP2D6 genotype.
The AS was introduced as ordered categorical covariate applying a fractional change model with four categories representing the ‘traditional’ CYP2D6 phenotype classes investigating two different grouping types for the intermediate (IM) and normal (NM) metaboliser group (depending on whether AS=1 is classified as IM or NM, see Figure 1 in main text), or with six AS categories only grouping AS 2.5 and 3 (Equation 8). To model the CYP2D6 activity scores, fiveseparate categorical covariate effects (for AS subgroups: 0, 0.5, 1, 1.5 and 2.5-3) were estimated while AS=2 was set as reference category (i.e. for a typical patient with AS=2: CL23/F = θRef). An indicator variable XAS,i was coded as 1 for a patient belonging into the respective AS category or 0 otherwise.

[7] = cited from earlier work
[8] = interindividual variability, final model
[9] = interoccasion variability, final model
[10] = 20 mg dose group, across all studies, steady-state
[11] = fractional change of endoxifen formation vs AS 2

SMILES: CC/C(=C(\c1ccccc1)c1ccc(OCCN(C)C)cc1)c1ccccc1 [tamoxifen, reference compound]
ka ([1]; absorption rate constant, oral tamoxifen): 1.78 h⁻¹
IIV CL20/F, variance estimate [1, 8]: 0.148
IOV CL20/F, variance estimate [1, 9]: 0.0222
total ISV before covariate introduction ([1]; interstudy variability): 31.2 % CV
total ISV upon covariate introduction ([1]; interstudy variability): 16.1 % CV
tlag ([1]; lag time): 0.389 h
VTAM/F ([1]; relative central volume of distribution, reference patient): 1120 L
CL20/F (Ref.) ([1]; relative clearance of tamoxifen, reference patient: CYP2D6 AS 2, 65 years, no rifampicin or SSRI): 5.77 L/h
IOV CL20/F before implementing rifampicin effect ([1]; without covariate): 24.9 % CV
range of Css,min [2, 10]: 3.05 to 448 ng/mL

change in endoxifen formation (CYP2D6 [3]): −65%
IIV CL23/F [1, 8]: 47.2 % CV
IIV CL23/F, variance estimate [1, 8]: 0.201
IOV CL23/F, variance estimate [1, 9]: 0.0289
IOV CL23/F ([1]; interoccasion variability, final model (SSRI effect included)): 17.1 % CV
CL23/F (Ref.) ([1]; relative formation of endoxifen, reference patient: CYP2D6 AS 2, 65 years, no rifampicin or SSRI): 0.493 L/h
IIV CL23/F before covariate inclusion ([1]; without CYP2D6 AS and SSRI covariates): 63.3 % CV
IOV CL23/F before considering SSRI effect ([1]; without covariate): 26.4 % CV
%CVgeom of Css,min [2, 10]: 84.4%
median Css,min [2, 10]: 10.7 ng/mL
range of Css,min [2, 10]: 0.70 to 45.5 ng/mL
overall risk of subtarget endoxifen concentrations, observed ([2]; observed population of PK database, CSS,min below 5.97 ng/mL): 28.9%
fractional decrease from CL23/F reference value (CYP2D6 [6]; AS 1): 32.3%
fractional decrease from CL23/F reference value (CYP2D6 [6]; AS 1.5): 21.1%
CL23/F_AS: 0 (CYP2D6 [6]; [11]): −0.722
CL23/F_AS: 0.5 (CYP2D6 [6]; [11]): −0.510
CL23/F_AS: 1 (CYP2D6 [6]; [11]): −0.323
CL23/F_AS: 1.5 (CYP2D6 [6]; [11]): −0.211
CL23/F_AS: 2.5-3 (CYP2D6 [6]; [11]): 0.533
reduced endoxifen formation efficiency CL23/F (CYP2D6 [6]; intermediate metabolizers (AS: 0.5) vs AS 2): 51.0%
reduced endoxifen formation efficiency CL23/F (CYP2D6 [6]; poor metabolizers (AS: 0) vs AS 2): 72.2%
increased CL23/F (CYP2D6 [6]; ultrarapid metabolizer (AS ≥ 2.5) vs AS 2): 53.3%
SMILES: CC/C(=C(\c1ccc(O)cc1)c1ccc(OCCNC)cc1)c1ccccc1 [endoxifen, 4-hydroxy-N-desmethyl-tamoxifen]
potency relative to parent tamoxifen [4]: 100 fold
CL30/F ([5]; relative clearance of endoxifen): 5.1 L/h and 5.10 fixed L/h
VENDX/F ([5]; relative volume of distribution of endoxifen): 400 L and 400 fixed L
hazard ratio of the endoxifen exposure-response relationship ([7]; ref Madlensky et al. (2011)): 0.71
reduced risk of breast cancer recurrence related to endoxifen threshold concentration ([7]; ref Madlensky et al., 2011, Saladores et al., 2015): 26%
breast cancer patients not reaching proposed target endoxifen concentrations ([7]; tamoxifen standard dosing, ref Madlensky et al., 2011): ~20%
